Assay results as given in ChEMBL document CHEMBL2169792, “Synthesis of new 4-thiazolidinone-, pyrazoline-, and isatin-based conjugates with promising antitumor activity” (J Med Chem, 2012).
The source made the active and inactive calls. The rule behind the calls is not given here.

Legend:
[1] = Cytotoxicity against human non-small cell lung cancer cells after 48 hrs by SRB assay; assay type: functional; settings: Cancer cell lines
CCRF-CEM = test: Cytotoxicity against human CCRF-CEM cells after 48 hrs by SRB assay; assay type: functional
SK-MEL-2 = test: Cytotoxicity against human SK-MEL-2 cells after 48 hrs by SRB assay; assay type: functional; settings: SK-MEL-2, 48 h, read-out: LC50 (the source's name)
Malme-3M = test: Cytotoxicity against human MALME-3M cells after 48 hrs by SRB assay; assay type: functional
MDA-MB-435 = test: Cytotoxicity against human MDA-MB-435 cells after 48 hrs by SRB assay; assay type: functional; settings: MDA-MB-435, 48 h
SK-MEL-5 [2] = test: Cytotoxicity against human SK-MEL-5 cells after 48 hrs by SRB assay; assay type: functional; settings: SK-MEL-5, 48 h, read-out: LC50 (the source's name)
[3] = Cytotoxicity against human ovarian cancer cells after 48 hrs by SRB assay; assay type: functional; settings: Cancer cell lines
MOLT-4 = test: Cytotoxicity against human MOLT4 cells after 48 hrs by SRB assay; assay type: functional; settings: MOLT-4, 48 h
SF-539 = test: Cytotoxicity against human SF539 cells after 48 hrs by SRB assay; assay type: functional; settings: SF-539, 48 h
Mus musculus = test: Antitumor activity in ip dosed athymic nude mouse hollow fiber model assessed as reduction of viable cell mass; assay type: functional, organism-based
RXF 393 = test: Cytotoxicity against human RXF393 cells after 48 hrs by SRB assay; assay type: functional; settings: RXF 393, 48 h
UACC-257 = test: Cytotoxicity against human UACC257 cells after 48 hrs by SRB assay; assay type: functional; settings: UACC-257, 48 h
EKVX = test: Cytotoxicity against human EKVX cells after 48 hrs by SRB assay; assay type: functional
SF-268 = test: Cytotoxicity against human SF268 cells after 48 hrs by SRB assay; assay type: functional; settings: SF-268, 48 h
BT-549 = test: Cytotoxicity against human BT549 cells after 48 hrs by SRB assay; assay type: functional; settings: BT-549, 48 h
HCT-116 = test: Cytotoxicity against human HCT116 cells after 48 hrs by SRB assay; assay type: functional; settings: HCT-116, 48 h
MCF7 = test: Cytotoxicity against human MCF7 cells after 48 hrs by SRB assay; assay type: functional; settings: MCF7, 48 h
SF-295 = test: Cytotoxicity against human SF295 cells after 48 hrs by SRB assay; assay type: functional; settings: SF-295, 48 h
[4] = Cytotoxicity against human CNS cancer cells after 48 hrs by SRB assay; assay type: functional; settings: Cancer cell lines
IGROV-1 = test: Cytotoxicity against human IGROV1 cells after 48 hrs by SRB assay; assay type: functional; settings: IGROV-1, 48 h
OVCAR-4 = test: Cytotoxicity against human OVCAR4 cells after 48 hrs by SRB assay; assay type: functional; settings: OVCAR-4, 48 h
[5] = Cytotoxicity against human breast cancer cells after 48 hrs by SRB assay; assay type: functional; settings: Cancer cell lines
OVCAR-3 = test: Cytotoxicity against human OVCAR3 cells after 48 hrs by SRB assay; assay type: functional; settings: OVCAR-3, 48 h
LOX IMVI = test: Cytotoxicity against human LOXIMVI cells after 48 hrs by SRB assay; assay type: functional
M14 = test: Cytotoxicity against human M14 cells after 48 hrs by SRB assay; assay type: functional; settings: M14, 48 h
KM12 = test: Cytotoxicity against human KM12 cells after 48 hrs by SRB assay; assay type: functional; settings: KM12, 48 h
HCT-15 = test: Cytotoxicity against human HCT15 cells after 48 hrs by SRB assay; assay type: functional; settings: HCT-15, 48 h
[6] = Cytotoxicity against human leukemia cells after 48 hrs by SRB assay; assay type: functional; settings: Leukemia cell
Hs-578T = test: Cytotoxicity against human Hs578T cells after 48 hrs by SRB assay; assay type: functional
RPMI-8226 = test: Cytotoxicity against human RPMI8226 cells after 48 hrs by SRB assay; assay type: functional; settings: RPMI-8226, 48 h
SK-OV-3 = test: Cytotoxicity against human SKOV3 cells after 48 hrs by SRB assay; assay type: functional; settings: SK-OV-3, 48 h
NCI-H460 = test: Cytotoxicity against human NCI-H460 cells after 48 hrs by SRB assay; assay type: functional; settings: NCI-H460, 48 h
SK-MEL-5 [7] = test: Cytotoxicity against human SK-MEL-5 cells assessed as cell growth at 10 uM after 48 hrs by SRB assay; assay type: functional; settings: SK-MEL-5, 48 h, read-out: Activity
NCI-H23 = test: Cytotoxicity against human NCI-H23 cells after 48 hrs by SRB assay; assay type: functional; settings: NCI-H23, 48 h
U-251 = test: Cytotoxicity against human U251 cells after 48 hrs by SRB assay; assay type: functional; settings: U-251, 48 h
[8] = read-out: LC50 (the source's name)

SMILES: COc1ccc(C2CC(c3ccc4ccccc4c3)=NN2C2=NC(=O)/C(=C3\C(=O)Nc4ccc(Br)cc43)S2)cc1 (configuration not stated)
- GI50 [1]: 0.054 µM
- TGI [1]: 0.22 µM
- CC50 [1, 8]: 41.5 µM
- GI50 (CCRF-CEM): 0.0329 µM
- TGI (CCRF-CEM): 0.483 µM
- CC50 (CCRF-CEM; [8]): > 100 µM
- CC50 (SK-MEL-2): 0.882 µM
- GI50 (Malme-3M): 0.0277 µM
- TGI (Malme-3M): 0.0729 µM
- CC50 (Malme-3M; [8]): 0.64 µM
- GI50 (MDA-MB-435): 0.0318 µM
- TGI (MDA-MB-435): 0.106 µM
- CC50 (MDA-MB-435; [8]): 2.44 µM
- CC50 (SK-MEL-5 [2]): 0.341 µM
- GI50 [3]: 0.11 µM
- LC50 (concentration causing 50% net cell kill) [3]: 18.8 µM
- TGI [3]: 0.85 µM
- GI50 (MOLT-4): 0.0307 µM
- TGI (MOLT-4): 0.521 µM
- CC50 (MOLT-4; [8]): > 100 µM
- GI50 (SF-539): 0.0231 µM
- TGI (SF-539): 0.0542 µM
- CC50 (SF-539; [8]): 0.296 µM
- Activity (Mus musculus): inactive
- GI50 (RXF 393): 0.0197 µM
- TGI (RXF 393): 0.0403 µM
- CC50 (RXF 393; [8]): 0.0822 µM
- GI50 (UACC-257): 0.0511 µM
- TGI (UACC-257): 0.318 µM
- CC50 (UACC-257; [8]): > 100 µM
- GI50 (EKVX): 0.0476 µM
- TGI (EKVX): 0.426 µM
- CC50 (EKVX; [8]): > 100 µM
- GI50 (SF-268): 0.0365 µM
- TGI (SF-268): 0.222 µM
- CC50 (SF-268; [8]): 9.63 µM
- GI50 (BT-549): 0.553 µM
- TGI (BT-549): 7.74 µM
- CC50 (BT-549; [8]): 35.1 µM
- GI50 (HCT-116): 0.018 µM
- TGI (HCT-116): 0.0335 µM
- CC50 (HCT-116; [8]): > 0.0624 µM
- GI50 (MCF7): 0.0264 µM
- TGI (MCF7): > 0.0747 µM
- CC50 (MCF7; [8]): > 0.586 µM
- GI50 (SF-295): 0.0265 µM
- TGI (SF-295): 0.0786 µM
- CC50 (SF-295; [8]): 1.17 µM
- GI50 [4]: 0.046 µM
- LC50 (concentration giving 50% net cell kill) [4]: 3.42 µM
- TGI [4]: 0.21 µM
- GI50 (IGROV-1): 0.0498 µM
- TGI (IGROV-1): 0.451 µM
- CC50 (IGROV-1; [8]): > 100 µM
- GI50 (OVCAR-4): 0.0326 µM
- TGI (OVCAR-4): > 0.111 µM
- CC50 (OVCAR-4; [8]): > 100 µM
- GI50 [5]: 0.061 µM
- LC50 (concentration causing 50% net cell kill) [5]: 2.65 µM
- TGI [5]: 0.99 µM
- GI50 (OVCAR-3): 0.0216 µM
- TGI (OVCAR-3): 0.045 µM
- CC50 (OVCAR-3; [8]): 0.0937 µM
- GI50 (LOX IMVI): 0.0243 µM
- TGI (LOX IMVI): 0.0589 µM
- CC50 (LOX IMVI; [8]): 0.249 µM
- GI50 (M14): 0.0245 µM
- TGI (M14): 0.0593 µM
- CC50 (M14; [8]): > 0.21 µM
- GI50 (KM12): 0.0231 µM
- TGI (KM12): 0.0535 µM
- CC50 (KM12; [8]): 0.231 µM
- GI50 (HCT-15): 0.0629 µM
- TGI (HCT-15): 0.325 µM
- CC50 (HCT-15; [8]): > 2.45 µM
- GI50 [6]: 0.13 µM
- TGI [6]: 3.37 µM
- CC50 [6, 8]: 87.8 µM
- GI50 (Hs-578T): 0.0644 µM
- TGI (Hs-578T): > 1.03 µM
- CC50 (Hs-578T; [8]): > 100 µM
- GI50 (RPMI-8226): 0.214 µM
- TGI (RPMI-8226): 1.4 µM
- CC50 (RPMI-8226; [8]): > 42.2 µM
- GI50 (SK-OV-3): 0.033 µM
- TGI (SK-OV-3): > 0.114 µM
- CC50 (SK-OV-3; [8]): > 2.84 µM
- GI50 (NCI-H460): 0.0331 µM
- TGI (NCI-H460): 0.112 µM
- CC50 (NCI-H460; [8]): 5.45 µM
- growth at 10 µM (SK-MEL-5 [7]): -59.8%
- GI50 (NCI-H23): 0.0246 µM
- TGI (NCI-H23): 0.0567 µM
- CC50 (NCI-H23; [8]): 0.291 µM
- GI50 (U-251): 0.0246 µM
- TGI (U-251): 0.0578 µM
- CC50 (U-251; [8]): 0.289 µM
